Here are results for six compounds from the RepoRT retention time repository (doi:10.1016/j.foodchem.2021.129757).

SMILES strings stand for the structures.

The nature of one data set: RP, Phenomenex Luna Omega Polar C18, 100 × 2.1 mm, 1.6 µm, 40 °C, 0.5 mL/min, estimated dead time 0.44 min; A: water + 0.1% formic acid + 10 mM ammonium formate; B: acetonitrile; gradient (min/%B) 0/5 8/20 10/100 12/100 12.1/5 14/5. To be noted: stereoisomer not certain.
Turning to `O=c1c(O)c(-c2ccc(O)cc2)oc2cc(O)cc(O)c12` [Kaempferol], the LC retention time was 9.66 min.
Same read-out and setting: the result for `O=c1c(OS(=O)(=O)O)c(-c2ccc(O)c(O)c2)oc2cc(O)cc(O)c12` [Quercetin 3-O-sulfate] reads 9.25 min; that for `O=c1cc(-c2ccc(O)c(O)c2)oc2cc(O)cc(O)c12` [Luteolin], 9.48 min.
Take `COc1cc(C=O)ccc1O` [Vanillin]: the LC retention time was 5.38 min.
For `O=c1c(-c2ccc(O)cc2)coc2cc(O)cc(O)c12` [Genistein], the LC retention time was 9.62 min.

The nature of a further data set: RP, Waters ACQUITY UPLC HSS T3, 100 × 2.1 mm, 1.8 µm, 30 °C, 0.4 mL/min, estimated dead time 0.55 min; A: water + 0.1% formic acid, pH 3; B: acetonitrile + 0.1% formic acid, pH 3; gradient (min/%B) 0/0 2/0 15/100 22/100 22.1/0 26/0. The conditions noted are these: stereoisomer not certain.
Consider `O=c1c(O)c(-c2ccc(O)cc2)oc2cc(O)cc(O)c12` [Kaempferol], for which the LC retention time was 11.6 min.
Same read-out and setting: then `O=c1c(OS(=O)(=O)O)c(-c2ccc(O)c(O)c2)oc2cc(O)cc(O)c12` [Quercetin 3-O-sulfate], with 10.5 min; and `O=c1cc(-c2ccc(O)c(O)c2)oc2cc(O)cc(O)c12` [Luteolin], with 10.8 min.
For `COc1cc(C=O)ccc1O` [Vanillin], the LC retention time was 9.32 min.
On the same count and under the same terms, then `O=c1c(-c2ccc(O)cc2)coc2cc(O)cc(O)c12` [Genistein], with 11.5 min.

A short description of another data set: RP, Agilent ZORBAX Eclipse XDB-C18, 100 × 2.1 mm, 1.8 µm, 50 °C, 0.4 mL/min, estimated dead time 0.55 min; A: water + 0.1% formic acid, pH 3; B: methanol + 0.1% formic acid, pH 3; gradient (min/%B) 0/2 10/100 14.5/100 14.51/2 16.5/2. To be noted: stereoisomer not certain.
In the case of `Oc1cc(O)c2c(c1)OC(c1ccc(O)c(O)c1)C(O)C2` (single isomer, unassigned; (-)) [(-)-Epicatechin], the LC retention time was 3.7 min.
Take `O=c1c(O)c(-c2ccc(O)cc2)oc2cc(O)cc(O)c12` [Kaempferol]: the LC retention time is 6.86 min.
Turning to `O=c1c(OS(=O)(=O)O)c(-c2ccc(O)c(O)c2)oc2cc(O)cc(O)c12` [Quercetin 3-O-sulfate], the LC retention time was 5.84 min.
As for `O=c1cc(-c2ccc(O)c(O)c2)oc2cc(O)cc(O)c12` [Luteolin], the LC retention time is 6.42 min.
Regarding `COc1cc(C=O)ccc1O` [Vanillin], the LC retention time is 4.06 min.
`O=c1c(-c2ccc(O)cc2)coc2cc(O)cc(O)c12` [Genistein]: the LC retention time is 6.56 min.

The nature of a further data set: RP, Waters ACQUITY UPLC BEH C18, 100 × 2.1 mm, 1.7 µm, 65 °C, 0.4 mL/min, estimated dead time 0.55 min; A: water + 0.1% formic acid, pH 3; B: 80% acetonitrile + 20% acetone + 0.1% formic acid, pH 3; gradient (min/%B) 0/0 5/100 5.5/0 6/0. The conditions noted are these: stereoisomer not certain.
With `O=c1c(O)c(-c2ccc(O)cc2)oc2cc(O)cc(O)c12` [Kaempferol], the LC retention time is 3.02 min.
Same read-out and setting: the result for `COc1cc(C=O)ccc1O` [Vanillin] reads 2.03 min; that for `O=c1c(-c2ccc(O)cc2)coc2cc(O)cc(O)c12` [Genistein], 2.84 min.

A short description of another data set: RP, Waters ACQUITY UPLC BEH Shield RP18, 100 × 2.1 mm, 1.7 µm, 30 °C, 0.6 mL/min, estimated dead time 0.37 min; A: water + 0.1% formic acid, pH 3; B: acetonitrile + 0.1% formic acid, pH 3; gradient (min/%B) 0/0 2/0 7/10 22/95 22.1/0 26/0. The conditions noted are these: stereoisomer not certain.
In the case of `Oc1cc(O)c2c(c1)OC(c1ccc(O)c(O)c1)C(O)C2` (single isomer, unassigned; (-)) [(-)-Epicatechin], the LC retention time is 11.5 min.
The same measure, in the same setting: the result for `O=c1c(O)c(-c2ccc(O)cc2)oc2cc(O)cc(O)c12` [Kaempferol] reads 16.6 min; that for `O=c1c(OS(=O)(=O)O)c(-c2ccc(O)c(O)c2)oc2cc(O)cc(O)c12` [Quercetin 3-O-sulfate], 19.4 min; that for `O=c1cc(-c2ccc(O)c(O)c2)oc2cc(O)cc(O)c12` [Luteolin], 15.3 min.
The same measure, in the same setting: the result for `COc1cc(C=O)ccc1O` [Vanillin] reads 10.1 min; that for `O=c1c(-c2ccc(O)cc2)coc2cc(O)cc(O)c12` [Genistein], 16.1 min.

Another data set in a line: RP, Waters ACQUITY UPLC BEH Shield RP18, 150 × 2.1 mm, 1.7 µm, 40 °C, 0.4 mL/min, estimated dead time 0.83 min; A: water + 0.1% formic acid, pH 3; B: acetonitrile + 0.1% formic acid, pH 3; gradient (min/%B) 0/0 30/50 31/100 37/100 37.1/0. To be noted: stereoisomer not certain.
Turning to `O=c1c(O)c(-c2ccc(O)cc2)oc2cc(O)cc(O)c12` [Kaempferol], the LC retention time was 24.5 min.
The same measure, in the same setting: the result for `O=c1c(OS(=O)(=O)O)c(-c2ccc(O)c(O)c2)oc2cc(O)cc(O)c12` [Quercetin 3-O-sulfate] reads 25.5 min; that for `O=c1cc(-c2ccc(O)c(O)c2)oc2cc(O)cc(O)c12` [Luteolin], 20.2 min; that for `COc1cc(C=O)ccc1O` [Vanillin], 7.83 min.
On the same count and under the same terms, then `O=c1c(-c2ccc(O)cc2)coc2cc(O)cc(O)c12` [Genistein], with 22.9 min.

The next data set in a line: RP, Agilent ZORBAX RRHD Eclipse Plus C18, 50 × 2.1 mm, 1.8 µm, 30 °C, 0.4 mL/min, estimated dead time 0.28 min; A: water + 0.1% formic acid, pH 3; B: acetonitrile + 0.1% formic acid, pH 3; gradient (min/%B) 0/1 5/10 8/25 9.1/99 10/99 12/1. To be noted: stereoisomer not certain.
Consider `O=c1c(O)c(-c2ccc(O)cc2)oc2cc(O)cc(O)c12` [Kaempferol], for which the LC retention time is 9.16 min.
With `O=c1c(OS(=O)(=O)O)c(-c2ccc(O)c(O)c2)oc2cc(O)cc(O)c12` [Quercetin 3-O-sulfate], the LC retention time was 7.73 min.

A short description of the next data set: RP, Agilent ZORBAX RRHD Eclipse Plus C18, 50 × 2.1 mm, 1.8 µm, 30 °C, 0.4 mL/min, estimated dead time 0.28 min; A: water + 0.1% formic acid, pH 3; B: acetonitrile + 0.1% formic acid, pH 3; gradient (min/%B) 0/1 5/10 8/25 9.1/99 10/99 12/99. To be noted: stereoisomer not certain.
As to `O=c1c(O)c(-c2ccc(O)cc2)oc2cc(O)cc(O)c12` [Kaempferol], the LC retention time is 9.29 min.
The same measure, in the same setting: the result for `O=c1c(OS(=O)(=O)O)c(-c2ccc(O)c(O)c2)oc2cc(O)cc(O)c12` [Quercetin 3-O-sulfate] reads 8.12 min.

Another data set can be described thus: RP, Merck Supelco SUPELCOSIL LC-C18, 250 × 4.6 mm, 5 µm, 40 °C, 1 mL/min, estimated dead time 2.6 min; A: water + 0.1% trifluoroacetic acid, pH 2; B: acetonitrile + 0.1% trifluoroacetic acid, pH 2; gradient (min/%B) 0/5 45/35 47/75 49/35 50/5. To be noted: stereoisomer not certain.
Take `Oc1cc(O)c2c(c1)OC(c1ccc(O)c(O)c1)C(O)C2` (single isomer, unassigned; (-)) [(-)-Epicatechin]: the LC retention time is 16.8 min.
On the same count and under the same terms, then `O=c1c(O)c(-c2ccc(O)cc2)oc2cc(O)cc(O)c12` [Kaempferol], with 43.8 min.

The next data set can be described thus: RP, Agilent InfinityLab Poroshell 120 EC-C18, 100 × 3 mm, 2.7 µm, 25 °C, 0.4 mL/min, estimated dead time 1.1 min; A: water + 0.1% formic acid, pH 3; B: acetonitrile + 0.1% formic acid, pH 3; gradient (min/%B) 0/5 10/25 20/40 24/90 25/90 26/5 30/5. The conditions noted are these: stereoisomer not certain.
Turning to `O=c1c(O)c(-c2ccc(O)cc2)oc2cc(O)cc(O)c12` [Kaempferol], the LC retention time is 14.1 min.
On the same count and under the same terms, the result for `O=c1c(OS(=O)(=O)O)c(-c2ccc(O)c(O)c2)oc2cc(O)cc(O)c12` [Quercetin 3-O-sulfate] reads 12.6 min; that for `O=c1cc(-c2ccc(O)c(O)c2)oc2cc(O)cc(O)c12` [Luteolin], 17.1 min; that for `COc1cc(C=O)ccc1O` [Vanillin], 8.04 min.
On the same count and under the same terms, the result for `O=c1c(-c2ccc(O)cc2)coc2cc(O)cc(O)c12` [Genistein] reads 16.5 min.

The next data set is described as follows: RP, Phenomenex Synergi Hydro-RP, 250 × 2 mm, 4 µm, 25 °C, 0.2 mL/min, estimated dead time 2.5 min; A: water + 0.1% formic acid, pH 3; B: acetonitrile + 0.1% formic acid, pH 3; gradient (min/%B) 0/0.5 7/0.5 12/12.5 25/16.3 47/35 48/65 50/65 50.1/0.5. To be noted: stereoisomer not certain.
Consider `O=c1c(O)c(-c2ccc(O)cc2)oc2cc(O)cc(O)c12` [Kaempferol], for which the LC retention time was 52.3 min.
Still for that read-out and setting: then `O=c1cc(-c2ccc(O)c(O)c2)oc2cc(O)cc(O)c12` [Luteolin], with 47 min.

A short description of another data set: RP, Waters Atlantis T3, 100 × 2.1 mm, 3 µm, 40 °C, 0.3 mL/min, estimated dead time 0.73 min; A: water + 0.1% trifluoroacetic acid, pH 2; B: acetonitrile + 0.1% trifluoroacetic acid, pH 2; gradient (min/%B) 0/10 1/10 6/40 7/50 8/50 14/70 16/80 20/10 25/10. To be noted: stereoisomer not certain.
Turning to `O=c1c(O)c(-c2ccc(O)cc2)oc2cc(O)cc(O)c12` [Kaempferol], the LC retention time was 10.2 min.
The same measure, in the same setting: then `O=c1cc(-c2ccc(O)c(O)c2)oc2cc(O)cc(O)c12` [Luteolin], with 9.3 min.
